Source: PubChem BioAssay (NCI)
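Method: 48-hour compound exposure of cells in 96-well plates, five concentrations, linear interpolation of endpoints. At the GI50, growth is halved. TGI: total growth inhibition.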

Each molecule was assayed on OVCAR-4 ovarian (assay: DTP human tumour cell line panel, 48 h).
`CCCCCCCCCCSC(=N)N` gave a GI50 of 3.58 µM and a TGI of 17.6 µM. `CCOC(=O)c1c(C)n(Cc2ccccc2)c2c1cc1oc(=O)c(=O)n3cnc2c13` gave a GI50 of 19.8 µM and a TGI of over 50 µM. With `O=C1C=Cc2ncccc2C1=O` the TGI was 17.2 µM. For `[CH3][Sn]1([CH3])[O]CC(COc2cc(Cl)c(Cl)cc2Cl)[O]1` (centres undefined), the GI50 was over 100 µM and the TGI was over 100 µM. `CCc1cc(Cc2ccc(C)c(NC(=O)C(=O)C3C(=O)NC(=O)NC3=O)c2CC)cc(C)c1NC(=O)C(=O)C1C(=O)NC(=O)NC1=O` showed a TGI of over 100 µM. `CC(=O)OC(=O)O/C=C\CCl` was tested, and the TGI was over 100 µM. With `CC(=O)c1c2c(cc3c1CC1(C3)Cc3cc4c(c(C(=O)O)c3C1)CCC4)CCC2` (centres undefined) the TGI was over 100 µM. For `Cc1ccc(/C=N/NS(=O)(=O)c2ccccc2)c(C)c1`, the TGI was over 100 µM. `C#CCOCn1cnc2ncnc(N)c21` showed a TGI of over 100 µM. `Cc1noc(/N=C2\C=C(Nc3onc(C)c3C)C(=O)c3ccccc32)c1C` was tested, and the TGI was over 100 µM.

Each molecule was assayed on PC-3 prostate (assay: DTP human tumour cell line panel, 48 h).
In the case of `CC1=C(N2CC2)C(=O)c2ccccc2C1=O`, the TGI is reported as 3.87 µM. `CC(N1CCOCC1)C(O)(c1ccccc1)c1ccccn1` (centres undefined) showed a TGI of over 100 µM. Work on `CCN(CC)Cc1cc(Nc2c3ccccc3nc3cc(Cl)ccc23)ccc1O` yielded a GI50 of 1.59 µM and a TGI of 3.26 µM. `O=C(O)CCc1nc(-c2ccccc2-n2cccc2)no1` was tested, and the TGI was over 100 µM. `COc1cc2c(cc1OCCCOc1ccc(-c3nc4ccc(N5CCN(C)CC5)cc4[nH]3)cc1)N=C[C@@H]1CCCN1C2=O` showed a GI50 of under 0.01 µM and a TGI of under 0.01 µM. With `Nc1c(C(=O)Nc2cccc3ccccc23)sc2nc3c(cc12)C(=O)CCC3` the GI50 was 0.295 µM and the TGI was over 48.5 µM. Molecule `O=C(c1ccc2ccccc2c1)c1c(C(F)(F)F)n([O-])c2ccc(F)cc2[n+]1=O` has a GI50 of 1.55 µM and a TGI of 3.39 µM. For `COc1cccc2c1cc1c3c(cc4c(c32)OCO4)C(=O)N1`, the GI50 was 3.55 µM and the TGI was 24.4 µM. `CC(C(N)=O)N(C)C(=O)c1cnc2ccccc2c1` (centres undefined) showed a TGI of over 100 µM. `CCCOC(=O)C1C2CCC(O2)C1C(=O)O` (centres undefined) gave a TGI of over 100 µM. In the case of `COc1ccc2c(c1)/C(=N/OC(C)=O)c1c-2cnc2ccccc12`, the GI50 is reported as 21.3 µM and the TGI is reported as 48 µM. Work on `CCCCCCCCCCSC(=N)N` yielded a GI50 of 4.76 µM and a TGI of 17.5 µM. `CCOC(=O)c1c(C)n(Cc2ccccc2)c2c1cc1oc(=O)c(=O)n3cnc2c13` gave a GI50 of 10.3 µM and a TGI of over 50 µM. In the case of `O=C(/C=C/c1ccccc1)CCC1C(=O)NC(=S)NC1=O`, the TGI is reported as over 100 µM. For `C/C(=N/O)c1ccc(Nc2cc(-n3ccnc3)c3ccccc3n2)cc1`, the GI50 was 3.69 µM and the TGI was over 100 µM.

What follows are molecules tested on ACHN renal (assay: DTP human tumour cell line panel, 48 h).
Molecule `CC1=C(N2CC2)C(=O)c2ccccc2C1=O` has a TGI of 1.07 µM. `CC(N1CCOCC1)C(O)(c1ccccc1)c1ccccn1` (centres undefined) was tested, and the TGI was over 100 µM. In the case of `O=S1(=O)c2ccccc2N=C(c2ccccc2Cl)CC1c1ccc(F)cc1` (centres undefined), the TGI is reported as 32.6 µM. Molecule `CCN(CC)Cc1cc(Nc2c3ccccc3nc3cc(Cl)ccc23)ccc1O` has a GI50 of 1.47 µM and a TGI of 2.97 µM. In the case of `CC1=CC(=O)NP(=O)(C23CC4CC(CC(C4)C2)C3)N1` (centres undefined), the TGI is reported as over 100 µM. In the case of `O=c1[nH]cc(C(F)(C(F)(F)F)C(F)(F)F)c(=O)[nH]1`, the TGI is reported as over 100 µM. For `COc1ccc2c(c1)c1c3n2CCNN=C3CCC1`, the TGI was over 100 µM. `CC(C)N1C(C)[C@@H](c2ccccc2)O[P@]1(=O)CC1=CCCCC1` (some centres undefined) gave a TGI of over 100 µM. `O=C(O)CCc1nc(-c2ccccc2-n2cccc2)no1` was tested, and the TGI was over 100 µM. With `Cc1cc(Nc2nc(-c3ccncc3)nc3ccccc23)n[nH]1` the GI50 was 1.06 µM and the TGI was over 100 µM. `COC(=O)C(=O)C(C(=O)C(=O)Nc1cc(Cl)c(Cl)cc1Cl)c1nc2ccc([N+](=O)[O-])cc2[nH]c1=O` (centres undefined) gave a TGI of over 100 µM. With `COc1ccc(NC(=O)C2C(=O)N(c3ccc(OC)cc3)C(=O)/C2=N\NC(N)=O)cc1` (centres undefined) the TGI was 82.5 µM. `C/C(=N\NS(=O)(=O)c1ccc([N+](=O)[O-])cc1)c1ccc[n+]([O-])n1` showed a TGI of over 21.7 µM. Work on `S=c1c2ccccc2c(=S)n2n1CC=CC2` yielded a TGI of over 100 µM. For `N#CC(C(=O)CCCC(=O)Nc1ccc(Cl)cc1Cl)c1ccc(Cl)cc1` (centres undefined), the TGI was over 100 µM. `O=CCCCC(Sc1ccccc1)Sc1ccccc1` gave a TGI of 38.4 µM. `COc1ccc(C)cc1C1CCC(=O)O1` (centres undefined) showed a TGI of over 100 µM. `Cc1ccc2nc(NC(=O)C(=O)CC(=O)c3cccc4ccccc34)sc2c1` showed a TGI of over 100 µM. Molecule `Nc1c(C(=O)Nc2cccc3ccccc23)sc2nc3c(cc12)C(=O)CCC3` has a GI50 of 0.341 µM and a TGI of over 58.2 µM. With `O=C1CCC(=O)c2sccc2N1` the TGI was over 100 µM. `O=C(c1ccc2ccccc2c1)c1c(C(F)(F)F)n([O-])c2ccc(F)cc2[n+]1=O` gave a GI50 of 1.68 µM and a TGI of 3.04 µM. `COc1cccc2c1cc1c3c(cc4c(c32)OCO4)C(=O)N1` was tested, and the GI50 was 3.76 µM and the TGI was 15.4 µM. `CC(C(N)=O)N(C)C(=O)c1cnc2ccccc2c1` (centres undefined) showed a TGI of over 100 µM. `CCCOC(=O)C1C2CCC(O2)C1C(=O)O` (centres undefined) gave a TGI of over 100 µM. For `COc1ccc2c(c1)/C(=N/OC(C)=O)c1c-2cnc2ccccc12`, the GI50 was 20.4 µM and the TGI was 45.4 µM. Molecule `CCCCCCCCCCSC(=N)N` has a GI50 of 2.82 µM and a TGI of 9.33 µM. For `Cn1nc(-c2ccccc2)c(C(=O)/C=C/c2ccc(Cl)cc2)c(N2CCCC2)c1=O`, the TGI was 3.34 µM. Molecule `CCOC(=O)c1c(C)n(Cc2ccccc2)c2c1cc1oc(=O)c(=O)n3cnc2c13` has a GI50 of 9.91 µM and a TGI of 39.9 µM. `O=C1C=Cc2ncccc2C1=O` gave a TGI of 50.6 µM. For `[CH3][Sn]1([CH3])[O]CC(COc2cc(Cl)c(Cl)cc2Cl)[O]1` (centres undefined), the GI50 was 85.5 µM and the TGI was over 100 µM. Work on `O=C(/C=C/c1ccccc1)CCC1C(=O)NC(=S)NC1=O` yielded a TGI of over 100 µM. With `CCc1cc(Cc2ccc(C)c(NC(=O)C(=O)C3C(=O)NC(=O)NC3=O)c2CC)cc(C)c1NC(=O)C(=O)C1C(=O)NC(=O)NC1=O` the TGI was over 100 µM. `CC(=O)OC(=O)O/C=C\CCl` was tested, and the TGI was over 100 µM. `CC(=O)c1c2c(cc3c1CC1(C3)Cc3cc4c(c(C(=O)O)c3C1)CCC4)CCC2` (centres undefined) gave a TGI of over 100 µM. `C/C(=N/O)c1ccc(Nc2cc(-n3ccnc3)c3ccccc3n2)cc1` showed a GI50 of 18.6 µM and a TGI of 90.8 µM. `Cc1ccc(/C=N/NS(=O)(=O)c2ccccc2)c(C)c1` gave a TGI of over 100 µM. Molecule `C#CCOCn1cnc2ncnc(N)c21` has a TGI of over 100 µM. Molecule `Cc1noc(/N=C2\C=C(Nc3onc(C)c3C)C(=O)c3ccccc32)c1C` has a TGI of over 100 µM.

The molecules below were run on MOLT-4 leukemia (assay: DTP human tumour cell line panel, 48 h).
Molecule `CC1=C(N2CC2)C(=O)c2ccccc2C1=O` has a TGI of 16.3 µM. In the case of `O=S1(=O)c2ccccc2N=C(c2ccccc2Cl)CC1c1ccc(F)cc1` (centres undefined), the TGI is reported as 51.7 µM. `CCN(CC)Cc1cc(Nc2c3ccccc3nc3cc(Cl)ccc23)ccc1O` gave a GI50 of 2.01 µM and a TGI of 53.5 µM. `CC1=CC(=O)NP(=O)(C23CC4CC(CC(C4)C2)C3)N1` (centres undefined) was tested, and the TGI was over 100 µM. `O=c1[nH]cc(C(F)(C(F)(F)F)C(F)(F)F)c(=O)[nH]1` was tested, and the TGI was over 100 µM. In the case of `COc1ccc2c(c1)c1c3n2CCNN=C3CCC1`, the TGI is reported as over 100 µM. In the case of `CC(=O)[C-](C(C)=O)c1ccccc1.CC(=O)[C-](C(C)=O)c1ccccc1.CC(=O)[C-](C(C)=O)c1ccccc1.[Cl-].[Zr+4]`, the GI50 is reported as over 100 µM and the TGI is reported as over 100 µM. `CC(C)N1C(C)[C@@H](c2ccccc2)O[P@]1(=O)CC1=CCCCC1` (some centres undefined) was tested, and the TGI was over 100 µM. For `Cc1cc(Nc2nc(-c3ccncc3)nc3ccccc23)n[nH]1`, the GI50 was 33.9 µM and the TGI was over 100 µM. Molecule `COC(=O)C(=O)C(C(=O)C(=O)Nc1cc(Cl)c(Cl)cc1Cl)c1nc2ccc([N+](=O)[O-])cc2[nH]c1=O` (centres undefined) has a TGI of over 100 µM. Molecule `C/C(=N\NS(=O)(=O)c1ccc([N+](=O)[O-])cc1)c1ccc[n+]([O-])n1` has a TGI of 11.5 µM. `S=c1c2ccccc2c(=S)n2n1CC=CC2` showed a TGI of over 100 µM. `CC(C)(C)Sc1nnc(SC(C)(C)C)c2c(=O)[nH]nc(SC(C)(C)C)c12` was tested, and the TGI was 15.7 µM. `COc1cc2c(cc1OCCCOc1ccc(-c3nc4ccc(N5CCN(C)CC5)cc4[nH]3)cc1)N=C[C@@H]1CCCN1C2=O` was tested, and the GI50 was under 0.01 µM and the TGI was under 0.01 µM. Work on `CCCCNC1=C(C(=O)OCC)/C(=N/NC(=O)c2ccccc2O)CO1` yielded a TGI of over 100 µM.
